From patent US20100022495A1, “MODULATING ENDOPLASMIC RETICULUM STRESS IN THE TREATMENT OF TUBEROUS SCLEROSIS” (PRESIDENT AND FELLOWS OF HARVARD COLLEGE, priority 2005, published 2010)

Experiments:
[1] = test system: TSC2−/− MEFs; experiment: ER stress parameters (western blot, XBP-1 rt-PCR) in TSC2-deficient MEFs; format: cell-based, mouse; settings: for splicing of XBP-1 mRNA (UPR activation): thapsigargin 0.05 nM, tunicamycin 0.002 ug/ml, compared with controls
Method: (§1) All of the mouse embryonic fibroblast (MEF) cell lines (TSC1+/+, TSC1−/−, TSC2+/+, TSC2−/−) were cultured in medium containing DMEM-H+10% fetal bovine serum (FBS)+1% PS (penicillin-streptomycin complex) in 175 cm^2 cell culture flasks using standard methods. Upon reaching 90% confluency, cells were split into 10 cm dishes at 30-40% confluency and grown again in DMEM-H+10% FBS+1% PS to about 60% confluency for experiments.
At the start of the experiment, cells were placed in fresh media and treated with 200 nM Rapamycin or 10 mM […], and DMSO or PBS as respective vehicle controls (PBA was dissolved in PBS, and rapamycin was dissolved in DMSO), for 19 hours. As a vehicle control, DMSO was not present at a sufficiently high concentration to act as a chemical chaperone. Cells were then washed 3 times with serum-free DMEM-H+1% PS and incubated for 5 hours in serum free DMEM-H+1% PS in the presence of rapamycin or PBA and their appropriate vehicle controls. At the end of the incubation, the media was removed and dishes were immediately frozen in liquid nitrogen and stored at −80° C. untile further use.
(§2) Protein extracts were prepared with a lysis buffer containing 25 mM Tris-HCl (pH 7.4), 2 mM Na3VO4, 10 mM NaF, 10 mM Na4P2O7, 1 mM EGTA, 1 mM EDTA, 1% NP-40, 5 ug/ml leupeptin, 5 ug/ml aprotinin, 10 nM okadaic acid, and 1 mM phenylmethylsulfonyl fluoride (PMSF). Immunoprecipitations and immunoblotting experiments were performed with 200 and 75 μg total protein, respectively without any freeze-thaw cycles from individual aliquots.
(§3) Protein concentrations were normalized and the desired amounts were aliquotted into tubes. Laemelli buffer was added to a 1× final concentration and the samples were boiled for five minutes. After boiling, the samples were incubated at room temperature for 20 minutes. The boiled, cooled lysates were centrifuged at 14,000 rpm and subject to SDS-PAGE. Proteins were transferred to PVDF membranes for western blotting.
(§4) Membrane blotting was performed using standard techniques and reagents. Appropriate modification depending on the antibodies used and other considerations, is within the ability of those skilled in the art. Membranes were blocked in 10% blocking reagent for 1 hour prior to exposure to primary antibody in tris-buffered saline-tween (TBST), pH 7.4, overnight at 4° C. Following overnight incubation, membranes were washed in TBST for 3×20 minutes and placed into secondary antibody for 1 hour. Subsequently the membrane was washed 3×20 minutes in TBST. After the washing period, the membranes were developed by using a chemiluminescence kit and the bands were visualized using a phospho imager system (VersaDoc Imaging System, Model 3000).
(§5) Phosphorylation state of the ER stress markers PERK and s6K1 were analyzed in both wild type (TSC2+/+ and TSC1+/+) and TSC-deficient (TSC2−/− and TSC1−/−) MEFs. Cells were cultured and treated with DMSO (vehicle control) or rapamycin as discussed above. Rapamycin inhibits signaling through the mTOR pathway which is required for ER stress response. The DMSO was present at too low of a concentration to act as a chemical chaperone. Cells were harvested and protein and RNA were isolated. Protein samples were resolved by SDS-PAGE and proteins were transferred to PVDF membrane for western blotting as described above. RNA was subjected to rt-PCR using probes designed to mouse XBP-1 to detect splicing.
(§6) Phosphorylation state of the ER stress markers PERK, eIF2α cJun, JNK and s6K1, and the level of spliced XBP-1 were analyzed in both wild type and TSC-deficient MEFs. Cells were treated with PBS (vehicle control) or PBA (chemical chaperone) as discussed above. Cells were harvested, samples were resolved by SDS-PAGE, proteins were transferred to PVDF membrane, and western blots were performed as described above.

[2] = test system: TSC1−/− MEFs; experiment: ER stress parameters (western blot, XBP-1 rt-PCR) in TSC1-deficient MEFs; format: cell-based, mouse; settings: for splicing of XBP-1 mRNA (UPR activation): thapsigargin 0.05 nM, tunicamycin 0.002 ug/ml, compared with controls
Method: as §1
[…] As a vehicle control, DMSO was not present at a sufficiently high concentration to act as a chemical chaperone. […] At the end of the incubation, the media was removed and dishes were immediately frozen in liquid nitrogen and stored at −80° C. untile further use.
as §2, §3, §4, §5, §6

[3] = test system: TSC1−/− cells; experiment: Apoptosis (Cell Death Elisa, caspase 3 or PARP cleavage) in TSC1−/− cells; format: cell-based, mouse
Method: (§7) ER stress can cause apoptosis. […] Wild-type and TSC1−/− cells were plated in 96 well plates in DMEM-H+10% FBS+1% PS at 40-50% confluence. Upon reaching about 80% confluence, the cells were washed with DMEM-H without FBS and treated with the ER stress inducer thapsigargin (10 nM) or DMSO (vehicle control) for 6 hours in serum-free DMEM-H+1% PS. Apoptosis was analyzed by using Cell Death Elisa Kit using the manufacturer's instructions, or by detection of caspase 3 or PARP cleavage.

[4] = test system: TSC2−/− cells; experiment: Apoptosis (Cell Death Elisa, caspase 3 or PARP cleavage) in TSC2−/− cells; format: cell-based, mouse
[5] = test system: IRS-1; experiment: Degradation pattern of IRS-1 after cycloheximide addition in TSC-1 deficient cells; format: cell-based, mouse; settings: pretreatment with PBA (an hour without PBA)
From the text: (§8) It has been previously shown that when ER stress is induced acutely, IRS-1 is highly phosphorylated at serine 307 residue, and insulin induced tyrosine phosphorylation is blocked. […] Eight hour stimulation with thapsigargin in the presence of MG132 leads to ubiquitination of IRS-1. […] As mentioned above, IRS-1 degradation was increased in both TSC1- and TSC2-deficient cells. […] IRS-1 protein levels became totally undetectable in an hour after cycloheximide addition, whereas pretreatment with PBA extends this period up to 4 hours.

[6] = test system: c-Jun Amino Terminal Kinase-1 (JNK-1); experiment: c-Jun Amino Terminal Kinase (JNK) kinase assay on immunoprecipitates from TSC2-deficient cells; format: cell-based, mouse; settings: PBA 10 mM
Method: Cell lysates were prepared as above, and subsequently incubated with primary antibody and Sepharose beads, either Protein A Sepharose or Protein G Sepharose depending on the antibody. The samples were incubated on a rotating apparatus overnight at 4° C. Subsequently, beads were centrifuged at 14,000 rpm and washed 3 times with cold lysis buffer. If immunoprecipitates were to be subjected to SDS-PAGE, they were boiled in 2× Laemmli buffer for 5 minutes prior to loading.
Following immunoprecipitation the beads were washed 3 times with lysis buffer as described above, and two times with JNK kinase assay buffer (25 mM HEPES (pH: 7.4), 20 mM MgCl2, 20 mM β-glycerophosphate, 0.5 mM EGTA, 0.5 mM NaF, 0.5 mM NaOrthoVanadate, 1 mM PMSF) for equilibration. After washing with kinase buffer, the beads were incubated in 17 μl kinase buffer, 1 μl [^32P]γ-ATP and 4 μg of c-Jun fusion protein at 30° C. for 20 minutes. The reaction was terminated by the addition of Laemmli buffer. The samples were resolved by SDS-page and transferred to a PVDF membrane as described above. Phosphorylated c-Jun bands were visualized prior to western blotting.
Phosphorylation state of the ER stress markers PERK, eIF2α cJun, JNK and s6K1, and the level of spliced XBP-1 were analyzed in both wild type and TSC-deficient MEFs. Cells were treated with PBS (vehicle control) or PBA (chemical chaperone) as discussed above. […]

[7] = test system: TSC-1−/− cells; experiment: Insulin signaling (IRS-1, IRS-2, Akt western blot) in TSC-1−/− cells; format: cell-based, mouse; settings: PBA treatment
Method: (§9) For insulin signaling experiments, cells were treated exactly the same way as for analysis of ER stress parameters. At the end of a 5-hour starvation period, cells were either stimulated with PBS or with 100 nM insulin for 5 minutes for analysis of ISR phosphorylation analysis, or 15 minutes for Akt phosphorylation analysis. Samples were harvested and subjected to western blotting as described above. Blots were probed with primary antibodies targeted to total and phosphorylated insulin receptor substrate (IRS)-1, and -2, and Akt, a downstream target in the insulin signaling pathway.

[8] = test system: TSC-2−/− cells; experiment: Insulin signaling (IRS-1, IRS-2, Akt western blot) in TSC-2−/− cells; format: cell-based, mouse; settings: PBA treatment
Method: as §9

[9] = test system: ER stress; settings: western blot after treatment of the animal with the compound; cited from earlier work
[10] = test system: kidney adenomas and liver hemangiomas of TSC-2+/− mice; format: in vivo; settings: thapsigargin 1 mg/kg
Method: To address this, we have used around ˜1 year old TSC-2+/−mice for thapsigargin (1 mg/kg) or vehicle treatment. After 7 days of thapsigargin administration we have analyzed the apoptosis with tunnel assay in the kidney adenomas. […] Increased tunnel positivity in liver hemangiomas after thapsigargin treatment was also observed, but lack of liver hemangiomas in vehicle treated group, limits the conclusions that can be drawn from the study.

[11] = test system: IRS-1; experiment: IRS-1 degradation and ubiquitination during ER stress induced by thapsigargin or tunicamycin; format: cell-based; settings: for degradation of IRS-1: prolonged exposure to ER stress
From the text: as §8

[12] = test system: wild type control cells; experiment: UPR activation by low doses of ER stress inducers in wild type control cells; format: cell-based, mouse; settings: thapsigargin 0.05 nM, tunicamycin 0.002 ug/ml
Method: as §1
TSC-deficient cells and their corresponding control cells were exposed to extremely low doses of thapsigargin (0.05 nM) and tunicamycin (0.002 ug/ml) at which the UPR is not activated in wild type control cells. TSC1- and TSC2-deficient cells responded to the ER stress inducers by activating the UPR as determined by increased splicing of XBP-1 mRNA when compared with their controls.

[13] = test system: Wild-type control cells; experiment: Apoptosis in wild-type control cells; format: cell-based, mouse; settings: thapsigargin, same time period (6 hours)
Method: as §7

[14] = TSC2-deficient MEFs, western blot, rapamycin 200 nM, 12 hours, PBA 10 mM
[15] = TSC1-deficient MEFs, western blot, rapamycin 200 nM, 12 hours, PBA 10 mM
[16] = 8 hours in the presence of 26S proteosome inhibitor epoxomicin

C[C@@H]1C[C@@H]([C@H](O)CC2CC(=O)NC(=O)C2)C(=O)[C@@H](C)C1 [Cyclohexamide]
PERK phosphorylation [1, 14]: decrease | PERK phosphorylation [2, 15]: decrease

O=C(O)CCCc1ccccc1 [PBA, 4-phenyl butyric acid]
Glucose starvation induced PARP and caspase-3 cleavage ([3]; TSC-1−/− cells, 4-PBA treatment): blocked | PERK phosphorylation [1, 14]: blocked | S6 phosphorylation [1, 14]: significant decrease | eIF2α phosphorylation ([1]; TSC2-deficient cells, PBA 10 mM): blocked | XBP-1 mRNA splicing after glucose starvation ([1]; TSC-2 deficient cells glucose starved in the presence of 4-PBA): significantly reduced | rescue from ER stress inducer sensitivity ([4]; TSC2-deficient cells, treatment with chemical chaperone): at least partially rescued | Glucose starvation induced PARP and caspase-3 cleavage ([4]; TSC-2−/− cells, 4-PBA treatment): blocked | period until IRS-1 protein levels become undetectable after cycloheximide addition [5]: up to 4 hours | c-Jun Amino Terminal Kinase-1 (JNK-1) activity [6]: suppressed | insulin induced IRS-1 tyrosine phosphorylation ([7]; 100 nM insulin 5 minutes): improved | insulin induced IRS-2 tyrosine phosphorylation ([7]; 100 nM insulin 5 minutes): improved | insulin induced Akt phosphorylation ([7]; 100 nM insulin 15 minutes): improved | protein levels of IRS-1 [7]: increase | insulin induced IRS-1 tyrosine phosphorylation ([8]; 100 nM insulin 5 minutes): improved | insulin induced IRS-2 tyrosine phosphorylation ([8]; 100 nM insulin 5 minutes): improved | insulin induced Akt phosphorylation ([8]; 100 nM insulin 15 minutes): improved | protein levels of IRS-1 [8]: increase | PERK phosphorylation [2, 15]: block | S6 phosphorylation [2, 15]: significant decrease | s6K1 phosphorylation [2, 15]: significant decrease | eIF2α phosphorylation ([2]; TSC1-deficient cells, PBA 10 mM): substantial decrease | XBP-1 mRNA splicing after glucose starvation ([2]; TSC-1 deficient cells glucose starved in the presence of 4-PBA): significantly reduced | glucose starvation induced CHOP transcription ([2]; TSC-1 deficient cells, 4-PBA treatment): significantly reduced | ER stress in animals (phosphorylation of PERK, activation of JNK, phosphorylation of IRE-1α) [9]: regulate ER stress

C[C@H](CCC(=O)NCCS(=O)(=O)O)[C@H]1CC[C@H]2[C@@H]3[C@@H](O)C[C@@H]4C[C@H](O)CC[C@]4(C)[C@H]3CC[C@]12C [TUDCA, tauroursodeoxycholic acid]
ER stress in animals (phosphorylation of PERK, activation of JNK, phosphorylation of IRE-1α) [9]: regulate ER stress

C/C=C(/C)C(=O)O[C@H]1C(C)=C2[C@H]([C@@H]1OC(=O)CCCCCCC)[C@@](C)(OC(C)=O)C[C@H](OC(=O)CCC)[C@@]1(O)[C@H]2OC(=O)[C@@]1(C)O [thapsigargin]
tunnel positivity in liver hemangiomas ([10]; no liver hemangiomas in vehicle treated group): Increased | tunnel assay positive cells in kidney adenomas ([10]; ~1 year old TSC-2+/− mice, after 7 days): clear up-regulation | cleaved caspase-3 or PARP cleavage ([3]; TSC1−/− cells after thapsigargin treatment, compared with controls): significantly induced | apoptosis ([3]; TSC1−/− cells, thapsigargin 10 nM, after 6 hours): massive apoptosis | splicing of XBP-1 mRNA (UPR activation) ([1]; TSC2-deficient cells): increased | apoptosis ([4]; TSC2−/− cells, thapsigargin, after 6 hours): massive apoptosis | PARP and caspase-3 cleavage ([4]; TSC-2−/− cells, induction of ER stress): increased | ubiquitination of IRS-1 [11, 16]: severe ubiquitination | ubiquitination of IRS-1 ([11]; eight hour stimulation in the presence of MG132): ubiquitination | degradation of IRS-1 [11]: degradation of IRS-1 | UPR activation [12]: not activated | apoptosis [13]: no apoptosis | splicing of XBP-1 mRNA (UPR activation) ([2]; TSC1-deficient cells): increased

tunicamycin
splicing of XBP-1 mRNA (UPR activation) ([1]; TSC2-deficient cells): increased | ubiquitination of IRS-1 [11, 16]: severe ubiquitination | degradation of IRS-1 [11]: degradation of IRS-1 | UPR activation [12]: not activated | splicing of XBP-1 mRNA (UPR activation) ([2]; TSC1-deficient cells): increased
